Assay results from BindingDB's records for doi:10.7270/Q2NV9GP9 (Burnham Center For Chemical Genomics, 2010).
pEC50: −log10 of the molar value. Counter-ions that a name gives are not always drawn.

Molecular target: T1, Apelin receptor (Homo sapiens, UniProt P35414)
T1 sequence (P35414 whole entry): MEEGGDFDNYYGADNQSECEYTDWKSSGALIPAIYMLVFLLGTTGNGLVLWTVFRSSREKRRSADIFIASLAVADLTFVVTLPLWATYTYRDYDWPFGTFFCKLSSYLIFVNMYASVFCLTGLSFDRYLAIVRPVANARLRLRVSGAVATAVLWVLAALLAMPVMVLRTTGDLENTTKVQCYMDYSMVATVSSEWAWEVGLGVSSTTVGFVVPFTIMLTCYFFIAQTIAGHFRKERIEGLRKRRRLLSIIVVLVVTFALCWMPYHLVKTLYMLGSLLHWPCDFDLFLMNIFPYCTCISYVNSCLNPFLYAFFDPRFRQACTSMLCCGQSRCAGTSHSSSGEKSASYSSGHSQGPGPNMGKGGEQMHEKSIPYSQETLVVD
Assay: apelin receptor activators, concentration-response – cell-based, luminescence, uHTS hits, dose response (AID 488748)

[1] = inactive by the depositor's call

Work on `Cc1ccc(S(=O)(=O)Nc2nc(-c3ccccc3)cs2)cc1` yielded a pEC50 of under 4.00.

`Cc1cc(C)c2nc(NNC(=O)c3ccc(S(=O)(=O)N4CCc5ccccc5C4)cc3)sc2c1` showed a pEC50 of under 4.00.

Work on `Cc1ccc2nc(C(C#N)=Cc3ccc([N+](=O)[O-])o3)[nH]c2c1` yielded a pEC50 of under 4.00.

`CCC(c1nnnn1CCOC)N(Cc1ccc(C)cc1)Cc1cc2cc(OC)ccc2[nH]c1=O` (centres undefined) showed a pEC50 of under 4.00.

`CCC(C)NC(=O)CSC1=Nc2ccccc2C2=NC(CC(=O)NCc3ccc(F)cc3)C(=O)N12` (centres undefined) showed a pEC50 of under 4.00.

For `COc1ccccc1-n1c(SC)nc(O)cc1=O`, the pEC50 was 4.23.

For `CCCCCCC1=Cc2c/c(=C3/NN=C(c4cc(OC)c(OC)c(OC)c4)O3)c(=O)oc2=CC1=O`, the pEC50 was under 4.00.

Work on `COc1cc2c(cc1NC(=O)c1cc(-c3ccncc3)nc3ccc(C)cc13)oc1ccccc12` yielded a pEC50 of under 4.00.

In the case of `Cc1cc(C)c2sc(NNC(=O)c3ccc(S(=O)(=O)N4CCc5ccccc5C4)cc3)nc2c1`, the pEC50 was under 4.00.

For `COC/C=C/C1=CC2=CC(=O)C(C)(OC(=O)c3cnc4ccccc4n3)C(=O)C2=CN1c1ccccc1` (centres undefined), the pEC50 was under 4.00.

`CCCCC1=CC2=CC(=O)C(C)(OC(=O)CC)C(=O)C2=CN1C1CCCCC1` (centres undefined) showed a pEC50 [1] of 4.11.

Molecule `Clc1cccc(CN2CCc3c([nH]c4ccccc34)C2)c1` has a pEC50 of under 4.00.

Molecule `COc1ccc(CN=Nc2cc(C)nc3ccc(OC)cc23)c(OC)c1` has a pEC50 of under 4.00.

In the case of `CCOc1cc2[nH]c(=S)n(CCCC(=O)NCc3ccccn3)c(=O)c2cc1OCC`, the pEC50 was under 4.00.

For `CCN(CC)CCNC(=O)c1ccc(NC(=O)c2cc(-c3ccco3)nc3ccccc23)cc1`, the pEC50 was under 4.00.

`CC1CCCCN1S(=O)(=O)c1ccc(C(=O)N(CCCN(C)C)c2nc3ccc(Br)cc3s2)cc1` (centres undefined) gave a pEC50 of under 4.00.

Molecule `CCOc1ccc2nc(N(CCCN(C)C)C(=O)c3ccc(S(=O)(=O)N4CCc5ccccc5C4)cc3)sc2c1` has a pEC50 of under 4.00.

Work on `COc1cccc2sc3cc(NCC[C@@H]4CCCN4C)ccc3c(=O)c12` yielded a pEC50 of under 4.00.

`C=CCSc1nc(O)c(CC)c(=O)n1C(C)CC` (centres undefined) [1-butan-2-yl-5-ethyl-6-oxidanyl-2-prop-2-enylsulfanyl-pyrimidin-4-one] showed a pEC50 of 4.10.

`CCCSc1nc(O)c(CC)c(=O)n1C(C)CC` (centres undefined) [1-butan-2-yl-5-ethyl-6-oxidanyl-2-propylsulfanyl-pyrimidin-4-one] gave a pEC50 of 4.24.

With `CCC(C)NC(=O)CSC1=Nc2ccccc2C2=NC(CC(=O)NCc3ccccc3)C(=O)N12` (centres undefined) [2-[5-[2-(butan-2-ylamino)-2-oxidanylidene-ethyl]sulfanyl-3-oxidanylidene-2H-imidazo[1,2-c]quinazolin-2-yl]-N-(phenylmethyl)ethanamide] the pEC50 was under 4.00.

Work on `Clc1ccccc1CSc1nnc(-c2ccncc2)o1` [2-{[(2-chlorophenyl)methyl]sulfanyl}-5-(pyridin-4-yl)-1,3,4-oxadiazole] yielded a pEC50 of under 4.00.

Work on `CCOc1ccc2nc(O)c(CN(Cc3ccco3)C(CC)c3nnnn3Cc3ccccc3)cc2c1` (centres undefined) [3-({[1-(1-Benzyl-1H-tetrazol-5-yl)-propyl]-furan-2-ylmethyl-amino}-methyl)-6-ethoxy-1H-quinolin-2-one] yielded a pEC50 of under 4.00.

`CCOc1cc2[nH]c(=S)n(CCC(=O)N3CCc4ccccc4C3)c(=O)c2cc1OCC` [3-[3-(3,4-dihydro-1H-isoquinolin-2-yl)-3-oxidanylidene-propyl]-6,7-diethoxy-2-sulfanylidene-1H-quinazolin-4-one] gave a pEC50 of under 4.00.

`CCC(c1nnnn1Cc1ccccc1)N(Cc1cc2cc(OC)ccc2[nH]c1=O)CC1CCCO1` (centres undefined) [3-[[1-(1-benzyltetrazol-5-yl)propyl-(oxolan-2-ylmethyl)amino]methyl]-6-methoxy-1H-quinolin-2-one] was tested, and the pEC50 was under 4.00.

Molecule `COc1ccc2nc(O)c(C(c3nnnn3CC3CCCO3)N3CCc4ccccc4C3)cc2c1` (centres undefined) [3-{(3,4-Dihydro-1H-isoquinolin-2-yl)-[1-(tetrahydro-furan-2-ylmethyl)-1H-tetrazol-5-yl]-methyl}-6-methoxy-1H-quinolin-2-one] has a pEC50 of under 4.00.

For `Cc1cc(C)n2nc3nc(N4CCCCC4)nc(-c4ccco4)c3c2n1` [4-(2-furyl)-6,8-dimethyl-2-piperidin-1-ylpyrimido[4',5':3,4]pyrazolo[1,5-a]pyrimidine], the pEC50 [1] was 4.02.

`CCOc1cccc2sc(N(CCCN(C)C)C(=O)c3ccc(S(=O)(=O)N4CCc5ccccc5C4)cc3)nc12` [4-(3,4-dihydro-1H-isoquinolin-2-ylsulfonyl)-N-[3-(dimethylamino)propyl]-N-(4-ethoxy-1,3-benzothiazol-2-yl)benzamide;hydrochloride] showed a pEC50 of under 4.00.

`Cn1ncc2c(ON=C(N)c3ccc(C(C)(C)C)cc3)ncnc21` [4-tert-butyl-N'-(1-methylpyrazolo[3,4-d]pyrimidin-4-yl)oxy-benzamidine] gave a pEC50 of under 4.00.

With `CCOc1cc2[nH]c(=S)n(CCN3CCC(C)CC3)c(=O)c2cc1OCC` [6,7-diethoxy-3-[2-(4-methyl-1-piperidinyl)ethyl]-2-sulfanylidene-1H-quinazolin-4-one] the pEC50 was under 4.00.

Molecule `CC(C)(C)OC(=O)NCCCCCc1cn([C@@H](CO)C(=O)NCCCCCCCCCCC(=O)N2CCN(C(=O)OC(C)(C)C)CC2)nn1` [Boc-KS] has a pEC50 of under 4.00.

Molecule `CCCCC1=CC2=CC(=O)C(C)(OC(=O)CC)C(=O)C2=CN1c1ccccc1` (centres undefined) [CMLD003542] has a pEC50 of under 4.00.

Molecule `CCc1nnc(NC(=O)CSc2nc3cccnc3n2C2CCCCC2)s1` [MLS000073979] has a pEC50 [1] of 4.34.

In the case of `CCCc1cc(C(=O)Nc2sc3c(c2C(=O)OCC)CCCC3)no1` [MLS000116384], the pEC50 was under 4.00.

`CCOc1cc2[nH]c(=S)n(CCN3CCCCC3CC)c(=O)c2cc1OCC` (centres undefined) [MLS000520831] showed a pEC50 of under 4.00.

Work on `CCN1C(c2ccccc2)=C(c2ccccc2)S/C1=C\C=C1/SC(=S)N(C)C1=O` [MLS000526292] yielded a pEC50 of 5.10.

Work on `CC1CCN(S(=O)(=O)c2ccc3nc(-c4ccccn4)cc(C(=O)NCCN(C)Cc4ccccc4)c3c2)CC1` [MLS000682486] yielded a pEC50 of under 4.00.

For `C=CCn1c(SCC(=O)N2CCN(c3ccccc3)CC2)nc2c([nH]c3ccccc32)c1=O` [MLS001236003], the pEC50 was under 4.00.

For `COc1ccc(OC)c2sc(N(CCCN(C)C)C(=O)c3ccc(S(=O)(=O)N4CCc5ccccc5C4)cc3)nc12` [MLS001239200], the pEC50 was under 4.00.

Molecule `Cc1cc(C)c2sc(N(CCCN(C)C)C(=O)c3ccc(S(=O)(=O)N4CCc5ccccc5C4)cc3)nc2c1` [MLS001239249] has a pEC50 of under 4.00.

`COc1cccc2sc(N(CCCN(C)C)C(=O)c3ccc(S(=O)(=O)N4CCc5ccccc5C4)cc3)nc12` [MLS001239312] gave a pEC50 of under 4.00.

`CCc1ccc2nc(N(CCCN(C)C)C(=O)c3ccc(S(=O)(=O)N4CCc5ccccc5C4)cc3)sc2c1` [MLS001239341] showed a pEC50 of under 4.00.

For `CCOc1cccc2sc(N(CCCN(C)C)C(=O)c3ccc(S(=O)(=O)N(C)Cc4ccccc4)cc3)nc12` [MLS001239362], the pEC50 was under 4.00.

Molecule `COc1ccc2sc(N(CCCN(C)C)C(=O)c3ccc(S(=O)(=O)N4CCc5ccccc5C4)cc3)nc2c1` [MLS001239377] has a pEC50 of under 4.00.

In the case of `Cc1ccc2nc(N(CCCN(C)C)C(=O)c3ccc(S(=O)(=O)N4CCc5ccccc5C4)cc3)sc2c1` [MLS001239478], the pEC50 was under 4.00.

With `COc1cccc2sc3ccc(NCCC4CCCN4C)cc3c(=O)c12` (centres undefined) [MLS001249993] the pEC50 was under 4.00.

With `NC(=NOS(=O)(=O)c1ccc2ccccc2c1)c1ccncc1` [N'-[(2-naphthylsulfonyl)oxy]-4-pyridinecarboximidamide] the pEC50 was under 4.00.

In the case of `COc1cc2c(cc1NC(=O)c1cc(-c3cccnc3)nc3ccc(C)cc13)oc1ccccc12` [N-(2-methoxydibenzofuran-3-yl)-6-methyl-2-pyridin-3-ylquinoline-4-carboxamide], the pEC50 was under 4.00.

Molecule `CCN(CC)CCNC(=O)c1cc(-c2cccnc2)nc2ccc(S(=O)(=O)N3CCC(C)CC3)cc12` [N-[2-(diethylamino)ethyl]-6-[(4-methyl-1-piperidinyl)sulfonyl]-2-(3-pyridinyl)-4-quinolinecarboxamide] has a pEC50 of under 4.00.

`CC(C)C(=O)N1CCN(c2ccc(NC(=O)COc3ccccc3[N+](=O)[O-])cc2)CC1` [N-[4-(4-isobutyryl-1-piperazinyl)phenyl]-2-(2-nitrophenoxy)acetamide] gave a pEC50 of under 4.00.

`CSc1cccc(NC(=S)NC(=O)CCc2ccccc2)c1` [N-[(3-methylsulfanylphenyl)carbamothioyl]-3-phenyl-propanamide] showed a pEC50 of under 4.00.

In the case of `CCCCNc1c(-c2cccc(-c3ccc(OC)cc3)c2)nc2ccc(C)cn12` [N-butyl-2-[3-(4-methoxyphenyl)phenyl]-6-methylimidazo[1,2-a]pyridin-3-amine;2,2,2-trifluoroacetic acid], the pEC50 was under 4.00.

Molecule `CCOc1ccc2nc(O)c(CN(CCO)C(c3nnnn3C3CCCCC3)C(C)C)cc2c1` (centres undefined) [SMR000004541] has a pEC50 of under 4.00.

With `CCOc1cc2[nH]c(=S)n(CC3CCCN3CC)c(=O)c2cc1OCC` (centres undefined) [SMR000030998] the pEC50 was under 4.00.

Work on `CCSc1nc(O)c(CC)c(=O)n1C(C)CC` (centres undefined) [SMR000103074] yielded a pEC50 of under 4.00.

`COc1ccc2[nH]c(=O)c(CN(Cc3ccco3)C(c3nnnn3Cc3ccccc3)C(C)C)cc2c1` (centres undefined) [SMR000123514] was tested, and the pEC50 was under 4.00.

Molecule `CC1=NOC(=O)/C1=C\c1ccc(-c2cc(Cl)ccc2Cl)o1` [SMR000141784] has a pEC50 of under 4.00.

For `O=c1oc2cc(OCc3ccc([N+](=O)[O-])cc3)ccc2c2c1CCCC2` [SMR000176214], the pEC50 was under 4.00.

`COc1cc2c(cc1NC(=O)c1cccc([N+](=O)[O-])c1)oc1ccccc12` [SMR000187222] was tested, and the pEC50 was under 4.00.

Work on `Cc1ccc(C=NNC(=O)CSc2nnc(-c3ccccc3)n2-c2ccc(Cl)cc2)o1` [SMR000217660] yielded a pEC50 of under 4.00.

In the case of `Cc1ccc(C=NNC(=O)CSc2nnc(-c3ccc(Cl)cc3)n2-c2ccccc2)o1` [SMR000218122], the pEC50 was under 4.00.

`Cc1ccc2nc(NNC(=O)c3ccc(S(=O)(=O)N4CCc5ccccc5C4)cc3)sc2c1` [SMR000235768] gave a pEC50 of under 4.00.

`CC1(OC(=O)C2CCCC2)C(=O)C=C2C=C(c3ccsc3)N(C3CCCC3)C=C2C1=O` (centres undefined) [SMR000452667] gave a pEC50 of under 4.00.

`O=C(Cn1ncc2c([nH]c3ccccc32)c1=O)Nc1ccc(CN2CCCCC2)cc1` [SMR000629297] was tested, and the pEC50 was under 4.00.
